# Test results as given in US7507727B2, “Substituted quinobenzoxazine analogs and methods of using thereof” (Cylene Pharmaceuticals, Inc., priority 2003, dated 2009).
# Molecular target: c-Myc template DNA (c-myc quadruplex)
# Assay: Quadruplex binding / stop assay (Taq polymerase arrest, capillary electrophoresis)
# Conditions: read-out: S DATA; Table 1D, stop assay data
row,Structure (SMILES),IC50 [µM]
1,CN(C)CCCCNc1ccc2c(=O)c(C(=O)NCCCN3CCOCC3)cn3c2c1Oc1cc2ccccc2cc1-3 [compound 1542],> 15
2,CN(C)CCCCNc1ccc2c(=O)c(C(=O)NC3CC(C)(C)NC(C)(C)C3)cn3c2c1Oc1cc2ccccc2cc1-3 [compound 1543],1.75
3,CN(C)CCCCNC(=O)c1cn2c3c(c(NCCCCN(C)C)ccc3c1=O)Oc1cc3ccccc3cc1-2 [compound 1544],1.75
4,CN(C)CCCCNc1ccc2c(=O)c(C(=O)NCCN3CCOCC3)cn3c2c1Oc1cc2ccccc2cc1-3 [compound 1545],0.75
5,O=C(NCCN1CCCC1)c1cn2c3c(c(NCCN4CCOCC4)ccc3c1=O)Oc1cc3ccccc3cc1-2 [compound 1546],> 15
6,CN1CCCC1CCNC(=O)c1cn2c3c(c(NCCN4CCOCC4)ccc3c1=O)Oc1cc3ccccc3cc1-2 (stereo not shown) [compound 1547],> 15
7,O=C(NCCCN1CCOCC1)c1cn2c3c(c(NCCN4CCOCC4)ccc3c1=O)Oc1cc3ccccc3cc1-2 [compound 1548],> 15
8,CC1(C)CC(NC(=O)c2cn3c4c(c(NCCN5CCOCC5)ccc4c2=O)Oc2cc4ccccc4cc2-3)CC(C)(C)N1 [compound 1549],> 15
9,CN(C)CCCCNC(=O)c1cn2c3c(c(NCCN4CCOCC4)ccc3c1=O)Oc1cc3ccccc3cc1-2 [compound 1550],> 15
10,O=C(NCCN1CCOCC1)c1cn2c3c(c(NCCN4CCOCC4)ccc3c1=O)Oc1cc3ccccc3cc1-2 [compound 1551],> 15
11,CN1CCN(CCCNc2ccc3c(=O)c(C(=O)NCCN4CCCC4)cn4c3c2Oc2cc3ccccc3cc2-4)CC1 [compound 1552],0.75
12,CN1CCN(CCCNc2ccc3c(=O)c(C(=O)NCCC4CCCN4C)cn4c3c2Oc2cc3ccccc3cc2-4)CC1 (stereo not shown) [compound 1553],0.75
13,CN1CCN(CCCNc2ccc3c(=O)c(C(=O)NCCCN4CCOCC4)cn4c3c2Oc2cc3ccccc3cc2-4)CC1 [compound 1554],1.75
14,CN(C)CCCCNC(=O)c1cn2c3c(c(NCCCN4CCN(C)CC4)ccc3c1=O)Oc1cc3ccccc3cc1-2 [compound 1555],0.75
15,CN1CCN(CCCNc2ccc3c(=O)c(C(=O)NCCN4CCOCC4)cn4c3c2Oc2cc3ccccc3cc2-4)CC1 [compound 1556],1.75
16,O=C(NCCCN1CCOCC1)c1cn2c3c(c(NCCCN4CCOCC4)c(F)cc3c1=O)Oc1ccccc1-2 [compound 1560],> 15
17,CC(C)N1CCN(c2c(F)cc3c(=O)c(C(=O)NCCCN4CCOCC4)cn4c3c2Oc2ccccc2-4)CC1 [compound 1561],> 15
18,CC(C)N1CCN(c2c(F)cc3c(=O)c(C(=O)NCCN4CCOCC4)cn4c3c2Oc2ccccc2-4)CC1 [compound 1562],> 15
19,CC(C)N1CCN(c2c(F)cc3c(=O)c(C(=O)NCCCN4CCN(C)CC4)cn4c3c2Oc2ccccc2-4)CC1 [compound 1563],> 15
20,CC(C)N1CCN(c2c(F)cc3c(=O)c(C(=O)N4CCC(NC(=O)OC(C)(C)C)C4)cn4c3c2Oc2ccccc2-4)CC1 (stereo not shown) [compound 1564],> 15
21,CC(C)N1CCN(c2c(F)cc3c(=O)c(C(=O)NCCC4CCCN4C)cn4c3c2Oc2ccccc2-4)CC1 (stereo not shown) [compound 1565],> 15
22,CC(C)N1CCN(c2c(F)cc3c(=O)c(C(=O)NCCN4CCCC4)cn4c3c2Oc2ccccc2-4)CC1 [compound 1566],> 15
23,CC(C)N1CCN(c2c(F)cc3c(=O)c(C(=O)NCCCCN(C)C)cn4c3c2Oc2ccccc2-4)CC1 [compound 1567],> 15

row,Structure (SMILES),IC50 [µM]
1,CC(C)N1CCN(c2c(F)cc3c(=O)c(C(=O)NCC(C)(C)CN(C)C)cn4c3c2Oc2ccccc2-4)CC1 [compound 1568],> 15
2,CC(C)N1CCN(c2c(F)cc3c(=O)c(C(=O)N4CCC(N5CCCC5)CC4)cn4c3c2Oc2ccccc2-4)CC1 [compound 1569],> 15
3,CC(C)N1CCN(c2c(F)cc3c(=O)c(C(=O)N4CCN(C)CC4)cn4c3c2Oc2ccccc2-4)CC1 [compound 1570],> 15
4,CC(C)N1CCN(c2c(F)cc3c(=O)c(C(=O)NC4CC(C)(C)NC(C)(C)C4)cn4c3c2Oc2ccccc2-4)CC1 [compound 1571],> 15
5,CN1CCN(CCCNc2c(F)cc3c(=O)c(C(=O)NCCCN4CCOCC4)cn4c3c2Oc2ccccc2-4)CC1 [compound 1572],> 15
6,CN1CCN(CCCNc2c(F)cc3c(=O)c(C(=O)NCCN4CCOCC4)cn4c3c2Oc2ccccc2-4)CC1 [compound 1573],> 15
7,CN1CCN(CCCNc2c(F)cc3c(=O)c(C(=O)N4CCC(NC(=O)OC(C)(C)C)C4)cn4c3c2Oc2ccccc2-4)CC1 (stereo not shown) [compound 1574],> 15
8,CN1CCN(CCCNc2c(F)cc3c(=O)c(C(=O)N4CCC(NC(=O)OC(C)(C)C)C4)cn4c3c2Oc2ccccc2-4)CC1 (stereo not shown) [compound 1575],> 15
9,CN1CCN(CCCNc2c(F)cc3c(=O)c(C(=O)NCCC4CCCN4C)cn4c3c2Oc2ccccc2-4)CC1 (stereo not shown) [compound 1576],> 15
10,CN1CCN(CCCNc2c(F)cc3c(=O)c(C(=O)NCCN4CCCC4)cn4c3c2Oc2ccccc2-4)CC1 [compound 1577],> 15
11,CN(C)CCCCNC(=O)c1cn2c3c(c(NCCCN4CCN(C)CC4)c(F)cc3c1=O)Oc1ccccc1-2 [compound 1578],> 15
12,CN1CCN(CCCNc2c(F)cc3c(=O)c(C(=O)NCCCCN)cn4c3c2Oc2ccccc2-4)CC1 [compound 1579],> 15
13,CN(C)CC(C)(C)CNC(=O)c1cn2c3c(c(NCCCN4CCN(C)CC4)c(F)cc3c1=O)Oc1ccccc1-2 [compound 1580],> 15
14,CN1CCN(CCCNc2c(F)cc3c(=O)c(C(=O)N4CCC(N5CCCC5)CC4)cn4c3c2Oc2ccccc2-4)CC1 [compound 1581],> 15
15,CN1CCN(CCCNc2c(F)cc3c(=O)c(C(=O)N4CCN(C)CC4)cn4c3c2Oc2ccccc2-4)CC1 [compound 1582],> 15
16,CC(C)(C)OC(=O)NC1CCN(c2c(F)cc3c(=O)c(C(=O)NCCCN4CCOCC4)cn4c3c2Oc2ccccc2-4)C1 (stereo not shown) [compound 1583],> 15
17,CC(C)(C)OC(=O)NC1CCN(c2c(F)cc3c(=O)c(C(=O)NCCN4CCOCC4)cn4c3c2Oc2ccccc2-4)C1 (stereo not shown) [compound 1584],> 15
18,CN1CCN(CCCNC(=O)c2cn3c4c(c(N5CCC(NC(=O)OC(C)(C)C)C5)c(F)cc4c2=O)Oc2ccccc2-3)CC1 (stereo not shown) [compound 1585],> 15
19,CC(C)(C)OC(=O)NC1CCN(C(=O)c2cn3c4c(c(N5CCC(NC(=O)OC(C)(C)C)C5)c(F)cc4c2=O)Oc2ccccc2-3)C1 (stereo not shown) [compound 1586],> 15
20,CN1CCCC1CCNC(=O)c1cn2c3c(c(N4CCC(NC(=O)OC(C)(C)C)C4)c(F)cc3c1=O)Oc1ccccc1-2 (stereo not shown) [compound 1587],> 15
21,CN(C)CCCCNC(=O)c1cn2c3c(c(N4CCC(NC(=O)OC(C)(C)C)C4)c(F)cc3c1=O)Oc1ccccc1-2 (stereo not shown) [compound 1588],> 15
22,CC(C)(C)OC(=O)NC1CCN(c2c(F)cc3c(=O)c(C(=O)NCCCCN)cn4c3c2Oc2ccccc2-4)C1 (stereo not shown) [compound 1589],> 15
23,CN(C)CC(C)(C)CNC(=O)c1cn2c3c(c(N4CCC(NC(=O)OC(C)(C)C)C4)c(F)cc3c1=O)Oc1ccccc1-2 (stereo not shown) [compound 1590],> 15

row,Structure (SMILES),IC50 [µM]
1,CC1(C)CC(NC(=O)c2cn3c4c(c(N5CCC(NC(=O)OC(C)(C)C)C5)c(F)cc4c2=O)Oc2ccccc2-3)CC(C)(C)N1 (stereo not shown) [compound 1591],> 15
2,O=C(NCCCN1CCOCC1)c1cn2c3c(c(NCCN4CCCC4)c(F)cc3c1=O)Oc1ccccc1-2 [compound 1592],> 15
3,O=C(NCCN1CCOCC1)c1cn2c3c(c(NCCN4CCCC4)c(F)cc3c1=O)Oc1ccccc1-2 [compound 1593],> 15
4,CN1CCN(CCCNC(=O)c2cn3c4c(c(NCCN5CCCC5)c(F)cc4c2=O)Oc2ccccc2-3)CC1 [compound 1594],> 15
5,CC(C)(C)OC(=O)NC1CCN(C(=O)c2cn3c4c(c(NCCN5CCCC5)c(F)cc4c2=O)Oc2ccccc2-3)C1 (stereo not shown) [compound 1595],> 15
6,CN1CCCC1CCNC(=O)c1cn2c3c(c(NCCN4CCCC4)c(F)cc3c1=O)Oc1ccccc1-2 (stereo not shown) [compound 1596],> 15
7,O=C(NCCN1CCCC1)c1cn2c3c(c(NCCN4CCCC4)c(F)cc3c1=O)Oc1ccccc1-2 [compound 1597],> 15
8,CN(C)CCCCNC(=O)c1cn2c3c(c(NCCN4CCCC4)c(F)cc3c1=O)Oc1ccccc1-2 [compound 1598],> 15
9,NCCCCNC(=O)c1cn2c3c(c(NCCN4CCCC4)c(F)cc3c1=O)Oc1ccccc1-2 [compound 1599],> 15
10,CN(C)CC(C)(C)CNC(=O)c1cn2c3c(c(NCCN4CCCC4)c(F)cc3c1=O)Oc1ccccc1-2 [compound 1600],> 15
11,O=C(c1cn2c3c(c(NCCN4CCCC4)c(F)cc3c1=O)Oc1ccccc1-2)N1CCC(N2CCCC2)CC1 [compound 1601],> 15
12,CN1CCN(C(=O)c2cn3c4c(c(NCCN5CCCC5)c(F)cc4c2=O)Oc2ccccc2-3)CC1 [compound 1602],> 15
13,CC1(C)CC(NC(=O)c2cn3c4c(c(NCCN5CCCC5)c(F)cc4c2=O)Oc2ccccc2-3)CC(C)(C)N1 [compound 1603],> 15
14,O=C(NCCCN1CCOCC1)c1cn2c3c(c(NCCN4CCOCC4)c(F)cc3c1=O)Oc1ccccc1-2 [compound 1604],> 15
15,O=C(NCCN1CCOCC1)c1cn2c3c(c(NCCN4CCOCC4)c(F)cc3c1=O)Oc1ccccc1-2 [compound 1605],> 15
16,CN1CCN(CCCNC(=O)c2cn3c4c(c(NCCN5CCOCC5)c(F)cc4c2=O)Oc2ccccc2-3)CC1 [compound 1606],> 15
17,CC(C)(C)OC(=O)NC1CCN(C(=O)c2cn3c4c(c(NCCN5CCOCC5)c(F)cc4c2=O)Oc2ccccc2-3)C1 (stereo not shown) [compound 1607],> 15
18,CN1CCCC1CCNC(=O)c1cn2c3c(c(NCCN4CCOCC4)c(F)cc3c1=O)Oc1ccccc1-2 (stereo not shown) [compound 1608],> 15
19,O=C(NCCN1CCCC1)c1cn2c3c(c(NCCN4CCOCC4)c(F)cc3c1=O)Oc1ccccc1-2 [compound 1609],> 15
20,CN(C)CCCCNC(=O)c1cn2c3c(c(NCCN4CCOCC4)c(F)cc3c1=O)Oc1ccccc1-2 [compound 1610],> 15
21,NCCCCNC(=O)c1cn2c3c(c(NCCN4CCOCC4)c(F)cc3c1=O)Oc1ccccc1-2 [compound 1611],> 15
